This is an account of results in patent US8916540B2, “Antibiotic compositions and related screening methods” (Academia Sinica, priority 2008, dated 2014).

One experiment has as its system Bordetella pertussis. The experiment in a line: Minimal inhibitory concentration (MIC) determination. It counts as cell-based.
The subject of a further experiment is Pseudomonas aeruginosa. The description is as above. It counts as cell-based.
Experiment [1] has as its system Salmonella enterica. The description is as above. It counts as cell-based.
Experiment [2] relates to Shigella flexneri. The experiment is described as above. Type of experiment: cell-based.
Experiment [3] addresses T1, E. coli PBP1b TG+TP (residues 88-844) (Escherichia coli, UniProt P02919).
T1 construct: TG+TP (residues 88-844); His tag (implied by nickel chelation chromatography); made in house; host or cells: E. coli (pET vectors)
T1 sequence (P02919 88-844): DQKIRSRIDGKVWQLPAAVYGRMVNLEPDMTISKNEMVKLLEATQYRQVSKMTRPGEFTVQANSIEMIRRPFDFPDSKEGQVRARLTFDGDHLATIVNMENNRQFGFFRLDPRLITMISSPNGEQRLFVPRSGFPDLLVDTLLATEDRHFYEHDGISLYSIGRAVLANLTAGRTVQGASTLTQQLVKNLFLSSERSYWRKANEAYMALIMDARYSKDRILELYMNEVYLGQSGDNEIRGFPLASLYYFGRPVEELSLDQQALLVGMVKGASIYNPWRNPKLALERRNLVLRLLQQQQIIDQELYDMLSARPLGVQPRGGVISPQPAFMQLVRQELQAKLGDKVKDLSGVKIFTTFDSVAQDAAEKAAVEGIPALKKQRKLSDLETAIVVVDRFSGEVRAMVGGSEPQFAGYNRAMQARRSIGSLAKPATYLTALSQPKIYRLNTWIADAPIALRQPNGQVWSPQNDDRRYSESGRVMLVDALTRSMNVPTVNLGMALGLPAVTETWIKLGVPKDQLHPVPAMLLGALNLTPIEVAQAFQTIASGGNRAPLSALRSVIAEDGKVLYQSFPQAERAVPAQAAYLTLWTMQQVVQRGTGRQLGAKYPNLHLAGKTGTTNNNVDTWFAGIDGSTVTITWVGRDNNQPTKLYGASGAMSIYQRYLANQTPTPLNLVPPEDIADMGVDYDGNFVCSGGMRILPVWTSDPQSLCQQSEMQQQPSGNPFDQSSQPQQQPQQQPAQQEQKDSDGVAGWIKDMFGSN
The experiment in a line: SPR moenomycin binding to truncated PBP1b variant. Conditions: PBP without the transmembrane domain. The text has this:
. Five E. coli PBP1b variants were expressed and purified: 1) full-length protein containing transmembrane, transglycosylase and transpeptidase domains (TM+TG+TP), 2) TG+TP, 3) TM+TG, 4) TG, and 5) TP (FIG. 1B).
. FIG. 1(B) is a schematic representation of the PBP variants used for moenomycin binding studies. The full-length PBP (TM+TG+TP) contains amino acid residues 1-844 of the E. coli PBP1b P02919. TG+TP (residues 88-844), TM+TG (residues 1-409), TG (residues 195-409), and TP (residues 444-736) are truncated variants with the part of the full-length PBP1b. The moenomycin binding constant (KD) for these variants were determined using SPR.
After immobilization of the target proteins on the sensor chip, different concentrations of moenomycin were passed through the surface and the binding affinities were determined. […].
Purified PBP and its variants were immobilized onto CM3 chip (GE healthcare, Uppsala, Sweden) to about 1,500˜2,000 RU via amine-coupling method. […]. Immobilization and data collection were performed with BIAcore T100 (GE Healthcare, Uppsala, Sweden) at 25° C.

In another experiment the test system is Neisseria gonorrhoeae. As to conditions: literature citation 28; cited from earlier work.
Experiment [4] relates to Salmonella enterica. As to conditions: literature citation 38; cited from earlier work.
The subject of experiment [5] is Shigella flexneri. Conditions: literature citation 28; cited from earlier work.
A further experiment has as its system Enterococcus faecium. Conditions: literature citation 10; cited from earlier work.
The next experiment has as its system Staphylococcus aureus. As to conditions: literature citation 10; cited from earlier work.

As usually defined, the MIC is the lowest concentration found to suppress growth. The low end stands for inhibition by little substance, the high end for a need for much substance.

Moenomycin A [Compound 1]: the MIC against Bordetella pertussis was 0.011 to 0.021 µM; against Pseudomonas aeruginosa, 40 µM; in the experiment with Salmonella enterica [1] it was 160 µM; against Shigella flexneri [2], 40 µM. The “moenomycin binding activity of TG+TP variant relative to full-length PBP1b (fold lower)” value in experiment [3] is “about 5 fold”; in [3] (listed as Moe A), “decreased five-fold”. For the same substance, the “Reported values MIC” value with Neisseria gonorrhoeae is 1.69 µM; in the experiment on Salmonella enterica [4] it was 13.75 to 110 µM; in the experiment on Shigella flexneri [5] it was 27.5 to 110 µM; with Enterococcus faecium it was over 40.5 µM; in the experiment on Staphylococcus aureus, 0.02 to 0.12 µM.
